From PMC11477289, “Low-Basicity 5-HT6 Receptor Ligands from the Group of Cyclic Arylguanidine Derivatives and Their Antiproliferative Activity Evaluation” (International Journal of Molecular Sciences, 2024)
Values after ≈ are worked out from the molar mass of the structure shown.

What was measured:
[1] = system: LN-229 glioblastoma cell line; assay: Antiproliferative activity (MTS), LN-229; details: Homo sapiens, LN-229, 72 h, read-out: IC50 Values LN-229
[2] = Fish embryo toxicity (FET) test, OECD 236; details: zebrafish (Danio rerio), in vivo, after 96 h of intoxication
Experimental: To determine the toxicity of the compounds [66], the fish embryo toxicity (FET) test was performed on zebrafish (Danio rerio) according to OECD Test 236. The collected embryos were transferred to a Petri dish with an E3 medium, consisting of 5 mM NaCl; 0.33 mM MgCl2; 0.33 mM CaCl2; and 0.17 mM KCl, and placed in 6-well plates, 10 embryos per well. Stock solutions were prepared in DMSO. The range of different concentrations of the solutions was prepared by dissolving stock solutions in the E3 medium each time directly before addition to the wells. The solutions were changed once daily, and the embryos were maintained in the incubator at 28.5 °C. At the end of the exposure period (96 hpf—hours postfertilization), acute toxicity was determined based on a positive outcome in any of the four visual indicators of lethality, including the coagulation of fertilized eggs, lack of somite formation, lack of detachment of the tailbud from the yolk sac, and lack of heartbeat. The value of LD50 was calculated. Heartbeats were recorded to observe cardiotoxic effects. A dose–response curve was generated using Prism 8.0.1 (GraphPad Software).
Figure 3 (A) Toxicity of PR 68 and PR 73 in vivo in Danio reiro embryo toxicity test. […] Cardiotoxicity of (B) PR 68 and (C) PR 73 measured as heart rate (beats per minute) on 5 dpf Danio rerio larvae, E3—fish embryo growth medium. […]

[3] = Metabolic stability in mouse liver microsomes (MLMs); assay type: in vitro ADME; details: 120 min; for remaining at 2 h, 50 µM: mouse, mouse liver microsomes
Experimental: The metabolic stability of PR 68, PR 73, and PR 76 were determined in mouse liver microsomes (MLMs).
The metabolic stability of PR 68 was estimated with mouse liver microsomes (MLMs) (Sigma-Aldrich, St. Louis, MO, USA). […] Cold methanol was then added to the reaction mixture to quench the reaction. The precipitated MLMs were centrifuged, and the supernatant was analyzed by LC/MS with a Waters ACQUITY™ TQD system with a TQ detector (Waters, Milford, USA).
(1 picture or pasted object on this page, not shown here)

[4] = system: AsPC-1 pancreas adenocarcinoma cell line; assay: Antiproliferative activity (MTS), AsPC-1; details: Homo sapiens, ASPC1, 72 h, read-out: IC50 Values AsPC-1
[5] = system: MCF7 breast carcinoma cell line; assay: Antiproliferative activity (MTS), MCF7; details: Homo sapiens, MCF7, 72 h, read-out: IC50 Values MCF7
[6] = biological target: T1, human 5-HT6 (Homo sapiens, UniProt P50406); assay: Functional evaluation, cAMP (LANCE Ultra) in HEK293 cells; assay type: cell-based; details: antagonist mode, cAMP induced by 5-CT 1000 nM
T1 construct: expressed in transfected cells
T1 sequence (P50406 whole entry): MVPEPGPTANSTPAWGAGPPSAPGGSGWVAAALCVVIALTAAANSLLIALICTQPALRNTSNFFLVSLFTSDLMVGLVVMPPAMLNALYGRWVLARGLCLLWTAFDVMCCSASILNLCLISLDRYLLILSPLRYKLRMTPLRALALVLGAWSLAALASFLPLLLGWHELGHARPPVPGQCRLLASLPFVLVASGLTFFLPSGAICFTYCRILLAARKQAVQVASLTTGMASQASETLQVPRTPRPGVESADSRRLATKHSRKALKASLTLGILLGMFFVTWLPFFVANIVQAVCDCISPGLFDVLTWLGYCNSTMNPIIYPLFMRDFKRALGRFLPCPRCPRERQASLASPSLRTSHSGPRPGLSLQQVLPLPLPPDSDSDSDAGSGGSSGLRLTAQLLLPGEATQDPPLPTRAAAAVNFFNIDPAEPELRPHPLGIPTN
Experimental: The supernatant was aspirated, and the cell pellet was resuspended in a stimulation buffer (1 × HBSS, 5 mM HEPES, 0.5 mM IBMX, 0.1% BSA).
The functional properties of compounds were evaluated using the LANCE Ultra cAMP detection kit (PerkinElmer). […] To investigate the antagonist activity, dopamine for D2R was added at a concentration of 10 nM, and for cell lines with 5-HT7R, 5-HT1AR, or 5-HT6R, 5-CT concentrations were adjusted, being, respectively, 10, 100, and 1000 nM, according to the receptor subtype.
For the quantification of cAMP levels, cells (5 µL) were incubated with a 5 µL mixture of necessary compounds for 30 min at room temperature in a 384-well white opaque microtiter plate (PerkinElmer). After incubation, the reaction was stopped, and cells were lysed by the addition of a 10 µL working solution (5 µL Eu-cAMP and 5 µL ULight-anti-cAMP). The assay plate was incubated for 1 h at room temperature. The time-resolved fluorescence resonance energy transfer (TR-FRET) signal was detected by an Infinite M1000 Pro (Tecan, Männedorf, Switzerland) using instrument settings from the LANCE Ultra cAMP detection kit manual.

[7] = biological target: T2, 5-HT1A receptor (Homo sapiens, UniProt P08908); assay: [3H]-8-OHDPAT radioligand binding assay, 5-HT1A
T2 sequence (P08908 1-422): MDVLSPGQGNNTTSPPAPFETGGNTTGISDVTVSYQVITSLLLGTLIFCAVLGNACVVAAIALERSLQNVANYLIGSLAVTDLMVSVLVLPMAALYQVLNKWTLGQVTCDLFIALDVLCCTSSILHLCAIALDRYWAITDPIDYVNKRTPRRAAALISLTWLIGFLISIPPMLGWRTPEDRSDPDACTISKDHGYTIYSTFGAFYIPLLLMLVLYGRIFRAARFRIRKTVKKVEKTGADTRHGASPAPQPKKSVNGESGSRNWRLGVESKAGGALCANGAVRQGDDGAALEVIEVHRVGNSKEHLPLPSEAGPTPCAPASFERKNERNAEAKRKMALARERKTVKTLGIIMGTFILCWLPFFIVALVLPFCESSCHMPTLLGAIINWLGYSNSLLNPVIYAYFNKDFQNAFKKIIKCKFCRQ

[8] = Chromatographic hydrophobicity index on C18 column (lipophilicity); assay type: physicochemical
[9] = system: astrocyte cell line PG-4; assay: Activity on normal astrocytes (MTS), PG-4; details: Felis catus, 72 h, read-out: IC50 Values PG-4
[10] = system: 1321N1 astrocytoma cell line; assay: Antiproliferative activity (MTS), 1321N1; details: Homo sapiens, 1321-N1, 72 h, read-out: IC50 Values 1321N1
[11] = Affinity to phospholipids, IAM column (CHI IAM); assay type: physicochemical; details: IAM.PC.DD2 column, pH 7.4
From the text: We began with an assay for lipophilicity, affinity for phospholipids (for 40 compounds), and drug binding to human serum albumin (HSA) (for 20 compounds), using chromatographic protocols developed by Valko [46] and implemented in our laboratory [47]. […] These methods allowed the determination of chromatographic hydrophobicity indices (CHIs), binding to HSA (%HSA), and phospholipids (CHIIAM) using a single-gradient elution experiment and comparison to reference substances.
The mobile phase flow rate was 1.5 mL/min, and the column was maintained at 30 °C. • Chiralpak® HSA (50 mm × 4 mm; 5 µm with safety guard column; Daicel Chiral Technologies, West Chester, PA, USA), mobile phase A: 50 mM ammonium acetate, mobile phase B: HPLC-grade isopropanol (VWR International, Leuven, Belgium). For the first 15 min, the linear gradient from 0 to 20% isopropanol was applied and then held at 20% isopropanol for 12 min. In the last 5 min of the sequence, the mobile phase mixture received a pure ammonium acetate solution. The column temperature was held at 30 °C, whereas the flow rate was 0.9 mL/min.
The reference substances for the calibration of HSA, C18, and IAM columns were purchased, respectively: acetanilide, butyrophenone, diclofenac, and octanonophenone (Alfa Aesar, Haverhill, MA, USA); acetophenone, benzimidazole, colchicine, indole, indometacin, paracetamol, and theophylline (Sigma-Aldrich, Steinheim, Germany); nicardipine and nizatidine (Cayman Chemical, Ann Arbor, MI, USA); carbamazepine, heptanophenone, hexanophenone, propiophenone, and valerophenone (Acros Organic, Pittsburg, PA, USA). Before chromatographic experiments, solutes were dissolved in dimethyl sulfoxide (Avantor Performance Materials Poland S.A., Gliwice, Poland) to obtain a 200 µg/mL concentration. The detection was performed in the UV region at the wavelength from 190 nm to 300 nm. The injected volume was 5 μL, and each compound was analyzed in triplicate.

[12] = biological target: 5-HT7b receptor (Homo sapiens, UniProt P34969); assay: [3H]-5-CT radioligand binding assay, 5-HT7
5-HT7b receptor, sequence (P34969 1-432 limits assumed): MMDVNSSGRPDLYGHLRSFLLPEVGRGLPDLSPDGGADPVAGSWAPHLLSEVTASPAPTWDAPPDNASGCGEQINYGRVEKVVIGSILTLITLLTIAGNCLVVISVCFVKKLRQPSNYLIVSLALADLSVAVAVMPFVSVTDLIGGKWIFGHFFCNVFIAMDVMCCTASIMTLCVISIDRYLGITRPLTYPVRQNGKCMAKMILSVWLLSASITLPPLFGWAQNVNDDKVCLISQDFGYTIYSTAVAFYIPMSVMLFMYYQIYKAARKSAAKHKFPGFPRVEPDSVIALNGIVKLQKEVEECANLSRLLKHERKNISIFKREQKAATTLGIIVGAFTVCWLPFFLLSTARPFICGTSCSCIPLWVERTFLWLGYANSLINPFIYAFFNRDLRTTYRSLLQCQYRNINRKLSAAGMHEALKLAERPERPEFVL

[13] = biological target: D2L receptor (Homo sapiens, UniProt P14416); assay: [3H]-raclopride radioligand binding assay, D2
D2L receptor, sequence (P14416 whole entry): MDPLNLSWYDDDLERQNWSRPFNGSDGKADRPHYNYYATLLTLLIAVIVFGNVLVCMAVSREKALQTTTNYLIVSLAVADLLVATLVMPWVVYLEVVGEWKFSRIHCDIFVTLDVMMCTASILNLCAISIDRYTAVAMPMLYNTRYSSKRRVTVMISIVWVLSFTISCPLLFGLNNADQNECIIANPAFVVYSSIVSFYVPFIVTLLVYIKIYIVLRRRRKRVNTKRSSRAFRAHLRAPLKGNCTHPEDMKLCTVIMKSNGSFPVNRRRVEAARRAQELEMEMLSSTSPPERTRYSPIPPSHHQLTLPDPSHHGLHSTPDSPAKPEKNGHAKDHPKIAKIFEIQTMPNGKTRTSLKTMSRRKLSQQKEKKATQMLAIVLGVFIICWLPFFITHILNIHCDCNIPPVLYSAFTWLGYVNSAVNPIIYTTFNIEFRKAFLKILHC

SMILES | IC50 [1] | LC50 at 96 h [2] | metabolized [3] | remaining at 2 h, 50 µM [3] | IC50 [4] | IC50 [5] | Kb [6] | Ki [7] | CHI C18 pH 2.6 [8] | CHI C18 pH 7.4 [8] | CHI C18 pH 10.5 [8] | IC50 [9] | IC50 [10] | CHI IAM [11] | Ki [12] | Ki [13]
CC1NC(NS(=O)(=O)c2cccc3ccccc23)=Nc2cccc(Cl)c21 (stereo not shown) [PR 68, N -(5-chloro-4-methyl-3,4-dihydroquinazolin-2-yl)naphthalene-1-sulfonamide] | > 25 µM | 7.82 µg/mL (≈ 20.3 µM) | 49% | 51.1% | > 25 µM | > 25 µM | 79 nM | 35.1 µM | 101.4 | 99.2 | 103.0 | > 25 µM | > 25 µM | 45.8 | 19.3 µM | 622 µM
CC1NC(NS(=O)(=O)c2cccc3ccccc23)=Nc2cccc(F)c21 (stereo not shown) [PR 73, N -(5-fluoro-4-methyl-3,4-dihydroquinazolin-2-yl)naphthalene-1-sulfonamide] | > 25 µM | 10.2 µg/mL (≈ 27.5 µM) |  | 24.6% | > 25 µM | > 25 µM | 134 nM | 80 µM | 94.6 | 94.9 | 96.5 | > 25 µM | > 25 µM | 42.3 | 35.8 µM | 146 µM
